The test system of one assay is Ramos cells. Description: Cytotoxicity in Ramos cells. Format: cell-based. The conditions noted are these: detection limit EC50=16 μM, read-out: Ramos Cell EC50. How it is done:
(§1) Exemplary compounds described in above Examples were tested for activity against F1F0-ATPase by measuring the ability of the compounds to inhibit ATP synthesis. In addition, the compounds were assessed for cytotoxicity in Ramos cells. Inhibition of F1F0-ATPase activity in synthesizing ATP and cytotoxicity in Ramos cells were measured according to the procedures described in K. M. Johnson et al. Chemistry & Biology 2005, 12, 485-496.

The target in a further assay is T1, F1F0-ATPase (Bos taurus, UniProt P13621).
T1 construct: from tissue
Description: Inhibition of F1F0-ATPase activity in synthesizing ATP. The following applies: inhibition of ATP synthesis; detection limit IC50=16 μM; read-out: ATP Syn IC50. Format: biochemical. The procedure:
as §1

Read-outs that look alike come from different tables or passages of the source.

A word on the EC50: it is the midpoint of the concentration-response curve. In general, IC50 refers to the concentration that inhibits the measured activity by half.

For `CCOCCN/C(=N/C(=O)c1cccc(Cl)c1)Nc1n[nH]c2cc(F)ccc12` [Compound A-86], the concentration for a half-maximal effect (EC50) in the assay on Ramos cells is 5 to 16 µM. The IC50 on F1F0-ATPase was over 16 µM.

For `CC(C)(O)CN/C(=N/C(=O)c1cccc(Cl)c1)Nc1n[nH]c2cc(F)ccc12` [Compound A-87], the concentration for a half-maximal effect (EC50) in the assay with Ramos cells is over 16 µM. Moreover, on F1F0-ATPase, the IC50 is over 16 µM.

As for `COC[C@H](C)N/C(=N/C(=O)c1ccc(F)c(F)c1)Nc1n[nH]c2cc(C(F)(F)F)ccc12` [Compound A-88], the half-maximal effective concentration (EC50) in the assay with Ramos cells was under 5 µM. Besides, the concentration for half-maximal inhibition (IC50) on F1F0-ATPase is over 16 µM.

For `COC[C@H](C)N/C(=N/C(=O)c1ccc(O)cc1)Nc1n[nH]c2cc(F)ccc12` [Compound A-89], in the assay with Ramos cells, the EC50 is 5 to 16 µM. Also, the half-maximal inhibitory concentration (IC50) on F1F0-ATPase was 5 to 16 µM.

Regarding `CC(C)(O)CN/C(=N/C(=O)c1ccc(O)cc1)Nc1n[nH]c2cc(F)ccc12` [Compound A-90], in the assay with Ramos cells, the half-maximal effective concentration (EC50) is over 16 µM. Also, on F1F0-ATPase, the IC50 is over 16 µM.

Consider `CC(C)CN/C(=N/C(=O)c1ccc(O)cc1)Nc1n[nH]c2cc(F)ccc12` [Compound A-91], for which the EC50 with Ramos cells is over 16 µM. Further, on F1F0-ATPase, the half-maximal inhibitory concentration (IC50) lay in the range of 5 to 16 µM.

Turning to `CC(C)(C)N/C(=N/C(=O)c1ccc(O)cc1)Nc1n[nH]c2cc(F)ccc12` [Compound A-92], the EC50 with Ramos cells is under 5 µM. Moreover, the IC50 on F1F0-ATPase lay within 5 to 16 µM.

With `COC[C@H](C)N/C(=N/C(=O)c1cccc(O)c1)Nc1n[nH]c2cc(F)ccc12` [Compound A-93], in the assay on Ramos cells, the EC50 is 5 to 16 µM. At F1F0-ATPase, the IC50 is 5 to 16 µM.

As to `CC(C)(O)CN/C(=N/C(=O)c1cccc(O)c1)Nc1n[nH]c2cc(F)ccc12` [Compound A-94], the concentration giving a half-maximal response (EC50) with Ramos cells lay within 5 to 16 µM. For the same compound, the 50% inhibitory concentration (IC50) at F1F0-ATPase was over 16 µM.

As to `CC(C)CN/C(=N/C(=O)c1cccc(O)c1)Nc1n[nH]c2cc(F)ccc12` [Compound A-95], the 50% effective concentration (EC50) in the assay on Ramos cells lay in the range of 5 to 16 µM. Also, the half-inhibitory concentration (IC50) on F1F0-ATPase is under 5 µM.

Take `CC(C)(C)N/C(=N/C(=O)c1cccc(O)c1)Nc1n[nH]c2cc(F)ccc12` [Compound A-96]: in the assay with Ramos cells, the EC50 was under 5 µM. At F1F0-ATPase, the IC50 is under 5 µM.

For the compound `CC(C)(C)NC(=NC(=O)c1cccc(Cl)c1)Nc1n[nH]c2cc(F)ccc12` [Compound A-97], in the assay with Ramos cells, the EC50 is under 5 µM. In addition, on F1F0-ATPase, the half-inhibitory concentration (IC50) was under 5 µM.

Turning to `CC(C)CNC(=NC(=O)c1cccc(Cl)c1)Nc1n[nH]c2cc(F)ccc12` [Compound A-98], the EC50 in the assay on Ramos cells is under 5 µM. For the same compound, the 50% inhibitory concentration (IC50) at F1F0-ATPase is under 5 µM.

Take `CCOCCNC(=NC(=O)c1cccc(Cl)c1)Nc1n[nH]c2cc(F)ccc12` [Compound A-99]: in the assay on Ramos cells, the EC50 was in the range of 5 to 16 µM. Also, the concentration for half-maximal inhibition (IC50) on F1F0-ATPase was under 5 µM.

With `CC(C)(C)NC(=NC(=O)c1ccc(F)c(F)c1)Nc1n[nH]c2cc(Cl)c(F)cc12` [Compound A-100], the EC50 in the assay with Ramos cells is under 5 µM. Also, the IC50 at F1F0-ATPase was under 5 µM.

With `CC(C)CNC(=NC(=O)c1ccc(F)c(F)c1)Nc1n[nH]c2cc(Cl)c(F)cc12` [Compound A-101], in the assay with Ramos cells, the EC50 is under 5 µM. Also, the IC50 at F1F0-ATPase was under 5 µM.

Turning to `CCOCCNC(=NC(=O)c1ccc(F)c(F)c1)Nc1n[nH]c2cc(Cl)c(F)cc12` [Compound A-102], in the assay on Ramos cells, the EC50 was under 5 µM. In addition, the IC50 on F1F0-ATPase is under 5 µM.

Consider `COC[C@H](C)NC(=NC(=O)c1ccc(F)c(F)c1)Nc1n[nH]c2cc(Cl)c(F)cc12` [Compound A-103], for which the concentration giving a half-maximal response (EC50) in the assay with Ramos cells was under 5 µM. Moreover, on F1F0-ATPase, the IC50 was under 5 µM.

In the case of `CC(C)(C)NC(=NC(=O)c1cccc(Cl)c1)Nc1n[nH]c2cc(Cl)c(F)cc12` [Compound A-104], in the assay on Ramos cells, the EC50 is under 5 µM. Also, the IC50 at F1F0-ATPase was under 5 µM.

As to `CC(C)CNC(=NC(=O)c1cccc(Cl)c1)Nc1n[nH]c2cc(Cl)c(F)cc12` [Compound A-105], the 50% effective concentration (EC50) with Ramos cells lay in the range of 5 to 16 µM. Further, on F1F0-ATPase, the IC50 is under 5 µM.

Regarding `CCOCCNC(=NC(=O)c1cccc(Cl)c1)Nc1n[nH]c2cc(Cl)c(F)cc12` [Compound A-106], the EC50 in the assay with Ramos cells (Homo sapiens) was under 5 µM. Further, on F1F0-ATPase, the concentration for half-maximal inhibition (IC50) was under 5 µM.

`COC[C@H](C)NC(=NC(=O)c1cccc(Cl)c1)Nc1n[nH]c2cc(Cl)c(F)cc12` [Compound A-107]: the concentration for a half-maximal effect (EC50) in the assay on Ramos cells is under 5 µM. Further, the IC50 on F1F0-ATPase was under 5 µM.

For the compound `CC(C)CNC(=NC(=O)c1ccc(O)cc1)Nc1n[nH]c2cc(Cl)ccc12` [Compound A-108], in the assay with Ramos cells, the EC50 was 5 to 16 µM. Further, on F1F0-ATPase, the half-inhibitory concentration (IC50) is under 5 µM.

Regarding `CC(C)CNC(=NC(=O)c1ccc(O)cc1)Nc1n[nH]c2cc(F)ccc12` [Compound A-109], the concentration for a half-maximal effect (EC50) in the assay on Ramos cells fell in the range of 5 to 16 µM. Further, at F1F0-ATPase, the IC50 lay within 5 to 16 µM.

With `COc1cc(F)c2c(NC(=NC(=O)c3ccc(F)c(F)c3)NC(C)(C)C)n[nH]c2c1` [Compound A-110], the EC50 with Ramos cells fell in the range of 5 to 16 µM. The IC50 at F1F0-ATPase is under 5 µM.

Regarding `O=C(/N=C(/Nc1cc(F)cc(Cl)c1)Nc1n[nH]c2ccccc12)c1ccc(Cl)cc1` [Compound A-111], the EC50 in the assay with Ramos cells (Homo sapiens) was 5 to 16 µM. In addition, the half-maximal inhibitory concentration (IC50) on F1F0-ATPase was under 5 µM.

Consider `O=C(/N=C(/Nc1cc(F)cc(Cl)c1)Nc1n[nH]c2ccc(F)cc12)c1ccc(F)c(F)c1` [Compound A-112], for which the EC50 in the assay on Ramos cells (Homo sapiens) was under 5 µM. In addition, the half-inhibitory concentration (IC50) on F1F0-ATPase was under 5 µM.

Consider `O=C(/N=C(/Nc1cc(F)cc(Cl)c1)Nc1n[nH]c2cccc(F)c12)c1ccc(F)c(F)c1` [Compound A-113], for which, in the assay with Ramos cells (Homo sapiens), the EC50 was over 16 µM. Further, on F1F0-ATPase, the IC50 is over 16 µM.

As to `COC[C@H](C)N/C(=N/C(=O)c1ccc(F)c(F)c1)Nc1nn(C)c2cc(C(F)(F)F)ccc12` [Compound A-114], the EC50 with Ramos cells (Homo sapiens) was over 16 µM. Also, the IC50 at F1F0-ATPase is over 16 µM.

Regarding `COC[C@H](C)N/C(=N/C(=O)c1ccc(Cl)cc1)Nc1nn(C)c2cc(C(F)(F)F)ccc12` [Compound A-115], the EC50 with Ramos cells (Homo sapiens) is over 16 µM. Moreover, the IC50 at F1F0-ATPase is over 16 µM.

Source of the values: patent US9920012B2, “Indazole guanidine F1F0-ATPase inhibitors and therapeutic uses thereof” (Lycera Corporation, priority 2012, dated 2018).
